# Legend:
# HCT-116 = test: Cytotoxic activity against human colon HCT116 cell line; type: functional, cell-based
# [1] = biological target: Cyclin-dependent kinase 2/cyclin E (Homo sapiens, UniProt P24941); test: Inhibition of human Cyclin E-cyclin-dependent kinase 2; type: protein-complex assay
# [2] = biological target: Cyclin-dependent kinase 4/cyclin D1 (Homo sapiens, UniProt P11802); test: Inhibitory activity against human Cyclin D1-cyclin-dependent kinase 4 activity; type: protein-complex assay
# Chain of Cyclin-dependent kinase 4/cyclin D1 (P11802 whole entry): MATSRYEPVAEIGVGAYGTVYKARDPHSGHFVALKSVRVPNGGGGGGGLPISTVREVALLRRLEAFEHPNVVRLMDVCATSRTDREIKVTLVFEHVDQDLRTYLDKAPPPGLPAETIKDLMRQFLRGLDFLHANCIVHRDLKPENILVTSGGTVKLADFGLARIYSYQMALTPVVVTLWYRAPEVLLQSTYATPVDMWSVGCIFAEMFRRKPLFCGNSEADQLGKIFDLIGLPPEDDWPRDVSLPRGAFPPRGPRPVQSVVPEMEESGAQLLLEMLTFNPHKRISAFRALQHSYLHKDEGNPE
# Chain of Cyclin-dependent kinase 4/cyclin D1 (P24385 whole entry, further chain): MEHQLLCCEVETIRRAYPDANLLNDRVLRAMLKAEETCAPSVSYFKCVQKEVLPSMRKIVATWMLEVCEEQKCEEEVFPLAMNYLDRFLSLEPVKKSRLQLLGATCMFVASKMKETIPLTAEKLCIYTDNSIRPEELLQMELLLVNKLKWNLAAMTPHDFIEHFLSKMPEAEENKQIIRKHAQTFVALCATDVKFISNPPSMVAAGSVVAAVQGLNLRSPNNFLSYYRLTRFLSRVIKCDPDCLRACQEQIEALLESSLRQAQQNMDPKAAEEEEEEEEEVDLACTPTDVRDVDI
# [3] = biological target: Cyclin-dependent kinase 2 (Homo sapiens, UniProt P24941); test: Inhibition of Cyclin-dependent kinase 2
# [4] = biological target: Cyclin-dependent kinase 4 (Homo sapiens, UniProt P11802); test: Inhibition of Cyclin-dependent kinase 4
# Chain of Cyclin-dependent kinase 4 (P11802 whole entry): as the sequence (P11802 whole entry) above
IC50 [1] [µM],IC50 [2] [µM],SMILES,IC50 (HCT-116) [µM],IC50 [3] [µM],IC50 [4] [µM]
> 0.2,0.42,O=C1NC(=O)c2c1c1c3ccc(F)cc3[nH]c1c1c2c2cccc3c2n1CCC3,2.37,–,–
–,0.079,O=C1NC(=O)c2c1c1c3ccc(CN4CCCNCC4)cc3[nH]c1c1c2c2cccc3c2n1CCC3,7.6,–,–
> 2,0.29,O=C1NC(=O)c2c1c1c3ccc(C(F)(F)F)cc3[nH]c1c1c2c2cccc3c2n1CCC3,1.48,–,–
–,> 2,COC(=O)c1ccc2[nH]c3c(c4c(c5c6cccc7c6n(c35)CCC7)C(=O)NC4=O)c2c1,–,–,–
> 2,0.24,O=C1NC(=O)c2c1c1c3ccccc3[nH]c1c1c2c2cccc3c2n1CC3,1.02,–,–
–,0.17,NCc1ccc2c(c1)[nH]c1c2c2c(c3c4cccc5c4n(c13)CCC5)C(=O)NC2=O,2.26,–,–
–,> 2,O=C1NC(=O)c2c1c1c3cc(F)ccc3[nH]c1c1c2c2cccc3c2n1CCC3,–,–,–
–,0.075,O=C1NC(=O)c2c1c1c3ccc(CN4CCOCC4)cc3[nH]c1c1c2c2cccc3c2n1CCC3,0.37,–,–
–,> 2,COC(=O)c1ccc2c(c1)[nH]c1c2c2c(c3c4cccc5c4n(c13)CCC5)C(=O)NC2=O,–,–,–
–,0.59,O=C1NC(=O)c2c1c1c3ccc(-c4ccncc4)cc3[nH]c1c1c2c2cccc3c2n1CCC3,3.29,–,–
–,–,O=C1NC(=O)c2c1c1c3ccccc3n3c1c1c2c2ccccc2n1[C@H]1CC[C@@H]3O1,–,0.54,0.68
–,0.09,O=C1NC(=O)c2c1c1c3ccc(CN4CCSCC4)cc3[nH]c1c1c2c2cccc3c2n1CCC3,0.6,–,–
–,0.05,O=C1NC(=O)c2c1c1c3ccc(CN4CCCC4)cc3[nH]c1c1c2c2cccc3c2n1CCC3,0.17,–,–
> 1,0.11,O=C1NC(=O)c2c1c1c3ccccc3[nH]c1c1c2c2cccc3c2n1CCC3,1.6,–,–
–,> 2,O=C1NC(=O)c2c1c1c([nH]c3cccc(F)c31)c1c2c2cccc3c2n1CCC3,–,–,–
–,0.16,O=C1NC(=O)c2c1c1c3ccc(-c4cccnc4)cc3[nH]c1c1c2c2cccc3c2n1CCC3,1.13,–,–
–,> 2,O=C1NC(=O)c2c1c1c3cc(F)c(F)cc3[nH]c1c1c2c2cccc3c2n1CCC3,–,–,–
–,0.087,O=C1NC(=O)c2c1c1c3ccc(CN4CCCCC4)cc3[nH]c1c1c2c2cccc3c2n1CCC3,0.32,–,–
–,0.065,O=C1NC(=O)c2c1c1c3ccc(CN4CCNCC4)cc3[nH]c1c1c2c2cccc3c2n1CCC3,> 10,–,–
1,0.094,O=C1NC(=O)c2c1c1c3ccccc3[nH]c1c1c2c2cccc3c2n1CCCC3,5.16,–,–
> 0.2,0.11,O=C1NC(=O)c2c1c1c3ccc(Cl)cc3[nH]c1c1c2c2cccc3c2n1CCC3,0.78,–,–
> 2,0.12,O=C1NC(=O)c2c1c1c3ccccc3[nH]c1c1c2c2cccc3c2n1CCCCC3,1.25,–,–
–,0.052,O=C1NC(=O)c2c1c1c3ccc(CO)cc3[nH]c1c1c2c2cccc3c2n1CCC3,0.34,–,–
–,0.075,O=C1NC(=O)c2c1c1c3ccc(CN4CCC4)cc3[nH]c1c1c2c2cccc3c2n1CCC3,0.23,–,–
–,> 2,O=C1NC(=O)c2c1c1c3cc(Br)ccc3[nH]c1c1c2c2cccc3c2n1CCC3,–,–,–
1,0.09,O=C1NC(=O)c2c1c1c3ccc(Br)cc3[nH]c1c1c2c2cccc3c2n1CCC3,2.3,–,–
